In the CheMixHub viscosity set:

Assay: xn = mol fraction of the nth substance listed

CC(=O)[O-].C[N+]1(CC2CO2)CCCC1=O (centres undefined) + O
viscosity [mPa·s], 101 kPa
Conditions | 293.15 K | 298.15 K | 303.15 K | 308.15 K | 313.15 K
x1 = 0.0346 | 2.26 | 1.94 | 1.67 | 1.46 | 1.29
x1 = 0.0775 | 4.27 | 3.56 | 3.01 | 2.6 | 2.28
x1 = 0.1028 | 5.4 | 4.45 | 3.71 | 3.13 | 2.67
x1 = 0.2008 | 7.75 | 6.28 | 5.18 | 4.33 | 3.63
x1 = 0.3054 | 8.32 | 6.76 | 5.57 | 4.67 | 3.95
x1 = 0.4045 | 8.17 | 6.7 | 5.56 | 4.69 | 4
x1 = 0.5113 | 7.82 | 6.47 | 5.41 | 4.6 | 3.94
x1 = 0.6049 | 7.47 | 6.23 | 5.23 | 4.47 | 3.85
x1 = 0.7052 | 7.16 | 6.01 | 5.1 | 4.38 | 3.79
x1 = 0.8048 | 6.92 | 5.83 | 4.97 | 4.28 | 3.72
x1 = 0.9047 | 6.73 | 5.68 | 4.87 | 4.21 | 3.67

CCCC[N+](CCCC)(CCCC)CCCC.[Br-] + O
298.15 K, 101 kPa
Conditions | viscosity [mPa·s]
x1 = 0.0009 | 0.8723
x1 = 0.0089 | 1.538
x1 = 0.0177 | 2.273

CN1CCCN2CCCN=C12 + O
100 kPa
Conditions | viscosity [mPa·s]
294.96 K, x1 = 0.5035 | 29.2
296.8 K, x1 = 0.1982 | 23.1
296.87 K, x1 = 0.1982 | 24.9
298.43 K, x1 = 0.5035 | 23.6
298.43 K, x1 = 0.798 | 11.2
303.69 K, x1 = 0.1982 | 15.8
308.29 K, x1 = 0.5035 | 14
308.31 K, x1 = 0.798 | 7.6
313.13 K, x1 = 0.1982 | 11.5
318.19 K, x1 = 0.798 | 5.6

C[C@H](O)C(=O)O + O
viscosity [mPa·s], 101 kPa
Conditions | x1 = 0.000625 | x1 = 0.000941 | x1 = 0.00124 | x1 = 0.00156 | x1 = 0.001899 | x1 = 0.002188 | x1 = 0.002523 | x1 = 0.002822 | x1 = 0.003145
298.15 K | 0.898 | 0.902 | 0.906 | 0.91 | 0.914 | 0.917 | 0.922 | 0.926 | 0.929
308.15 K | 0.731 | 0.734 | 0.736 | 0.738 | 0.741 | 0.744 | 0.747 | 0.75 | 0.753
318.15 K | 0.601 | 0.602 | 0.604 | 0.605 | 0.607 | 0.61 | 0.612 | 0.614 | 0.616

C[NH2+]CCO.O=C([O-])c1ccccc1O + O
100 kPa, x2 = 0.143
Conditions | viscosity [mPa·s]
298 K | 357.8
303 K | 249.1
313 K | 128.2
323 K | 72.71
